Experimental data reported in patent publication US20210045385A1, “PYRIDAZINONE-SUBSTITUTED KETOXIMES AS HERBICIDES” (FMC Corporation, priority 2018, published 2021).

Key:
Format in all cases: in vivo
[1] = tested on: pigweed (Amaranthus retroflexus); experiment: Test C postemergence, visual plant response rating
Procedure, shortened: (§1)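 Visual injury on a 0 (no effect) to 100 (complete control) scale versus untreated controls, scored approximately 10 d after treatment under greenhouse conditions. Treatments used surfactant-containing non-phytotoxic solvent formulations, sprayed onto loam–sand soil preemergence or onto one- to two-leaf plants 2–10 cm tall postemergence.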

[2] = tested on: barnyardgrass (Echinochloa crus-galli); experiment: Test C postemergence, visual plant response rating
Procedure, shortened: as §1

[3] = tested on: Italian ryegrass (Lolium mutiflorum); experiment: Test C postemergence, visual plant response rating
Procedure, shortened: as §1

[4] = tested on: ragweed (common ragweed, Ambrosia artemisiifolia); experiment: Test C postemergence, visual plant response rating
Procedure, shortened: as §1

[5] = tested on: kochia (Bassia scoparia); experiment: Test C postemergence, visual plant response rating
Procedure, shortened: as §1

[6] = tested on: corn (Zea mays); experiment: Test C postemergence, visual plant response rating
Procedure, shortened: as §1

[7] = tested on: galium (catchweed bedstraw, Galium aparine); experiment: Test C postemergence, visual plant response rating
Procedure, shortened: as §1

[8] = tested on: foxtail, giant (giant foxtail, Setaria faberi); experiment: Test C postemergence, visual plant response rating
Procedure, shortened: as §1

[9] = tested on: wheat (Triticum aestivum); experiment: Test C postemergence, visual plant response rating
Procedure, shortened: as §1

[10] = tested on: blackgrass (Alopecurus myosuroides); experiment: Test C postemergence, visual plant response rating
Procedure, shortened: as §1

[11] = tested on: pigweed (Amaranthus retroflexus); experiment: Test C preemergence, visual plant response rating
Procedure, shortened: as §1

[12] = tested on: barnyardgrass (Echinochloa crus-galli); experiment: Test C preemergence, visual plant response rating
Procedure, shortened: as §1

[13] = tested on: Italian ryegrass (Lolium mutiflorum); experiment: Test C preemergence, visual plant response rating
Procedure, shortened: as §1

[14] = tested on: ragweed (common ragweed, Ambrosia artemisiifolia); experiment: Test C preemergence, visual plant response rating
Procedure, shortened: as §1

[15] = tested on: kochia (Bassia scoparia); experiment: Test C preemergence, visual plant response rating
Procedure, shortened: as §1

[16] = tested on: foxtail, giant (giant foxtail, Setaria faberi); experiment: Test C preemergence, visual plant response rating
Procedure, shortened: as §1

[17] = tested on: duck salad (Heteranthera limosa); experiment: Test D flooded paddy test, visual plant response rating; details: 250 g ai/ha, scale 0 to 100 (0 no effect, 100 complete control), 13 to 15 d
Procedure, shortened: (§2)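 Rating is visual, on a 0 (no effect) to 100 (complete control) scale versus controls, taken 13 to 15 d after treatment in a greenhouse. Treatment went into paddy water kept 3 cm above the soil surface, with plants at the 2-leaf stage.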

[18] = tested on: rice (Oryza sativa); experiment: as above; details: 250 g ai/ha, scale 0 to 100 (0 no effect, 100 complete control), 13 to 15 d
Procedure, shortened: as §2

[19] = tested on: barnyardgrass (Echinochloa crus-galli); experiment: as above; details: 250 g ai/ha, scale 0 to 100 (0 no effect, 100 complete control), 13 to 15 d
Procedure, shortened: as §2

[20] = tested on: sedge umbrella (small-flower umbrella sedge, Cyperus difformis); experiment: as above; details: 250 g ai/ha, scale 0 to 100 (0 no effect, 100 complete control), 13 to 15 d
Procedure, shortened: as §2

[21] = Test C, postemergence, 125 g ai/ha
[22] = Test C, 31 g ai/ha, 0 is no effect, 100 is complete control
[23] = Test C, 125 g ai/ha, 0 is no effect, 100 is complete control

Row | Structure (SMILES) | Pigweed plant response rating (0 to 100 scale) ([1]; Postemergence, 31 g ai/ha) | Pigweed plant response rating (0 to 100 scale) [1, 21] | Barnyardgrass plant response rating (0 to 100 scale) ([2]; Postemergence, 31 g ai/ha) | Barnyardgrass plant response rating (0 to 100 scale) [2, 21] | Ryegrass, Italian plant response rating (0 to 100 scale) ([3]; Postemergence, 31 g ai/ha) | Ryegrass, Italian plant response rating (0 to 100 scale) [3, 21] | Ragweed plant response rating (0 to 100 scale) ([4]; Postemergence, 31 g ai/ha) | Ragweed plant response rating (0 to 100 scale) [4, 21] | Kochia plant response rating (0 to 100 scale) ([5]; Postemergence, 31 g ai/ha) | Kochia plant response rating (0 to 100 scale) [5, 21] | Corn plant response rating (0 to 100 scale) ([6]; Postemergence, 31 g ai/ha) | Corn plant response rating (0 to 100 scale) [6, 21] | Galium plant response rating (0 to 100 scale) ([7]; Postemergence, 31 g ai/ha) | Galium plant response rating (0 to 100 scale) [7, 21] | Foxtail, Giant plant response rating (0 to 100 scale) ([8]; Postemergence, 31 g ai/ha) | Foxtail, Giant plant response rating (0 to 100 scale) [8, 21] | Wheat plant response rating (0 to 100 scale) ([9]; Postemergence, 31 g ai/ha) | Wheat plant response rating (0 to 100 scale) [9, 21] | Blackgrass plant response rating (0 to 100 scale) ([10]; Postemergence, 31 g ai/ha) | Blackgrass plant response rating (0 to 100 scale) [10, 21] | also measured
1 | C#CCO/N=C(/c1ccc(F)c(Br)c1)c1c(O)c(C)nn(C)c1=O [Compound 163] | 40 | 70 | 20 | 50 | 50 | 90 | 30 | 60 | 30 | 50 | 0 | 30 | 70 | 90 | 20 | 70 | 60 | 80 | 20 | 60 | Pigweed plant response rating (0 to 100 scale) ([11]; 125 g ai/ha): 50; Pigweed plant response rating (0 to 100 scale) [11, 22]: 30; Barnyardgrass plant response rating (0 to 100 scale) ([12]; 125 g ai/ha): 30; Barnyardgrass plant response rating (0 to 100 scale) [12, 22]: 0; Ryegrass, Italian plant response rating (0 to 100 scale) ([13]; 125 g ai/ha): 100; Ryegrass, Italian plant response rating (0 to 100 scale) [13, 22]: 70; Ragweed plant response rating (0 to 100 scale) ([14]; 125 g ai/ha): 0; Ragweed plant response rating (0 to 100 scale) [14, 22]: 0; Kochia plant response rating (0 to 100 scale) ([15]; 125 g ai/ha): 50; Kochia plant response rating (0 to 100 scale) [15, 22]: 0; Foxtail, Giant plant response rating (0 to 100 scale) ([16]; 125 g ai/ha): 50; Foxtail, Giant plant response rating (0 to 100 scale) [16, 22]: 10; Plant response rating, Ducksalad (Flood) [17]: 0; Plant response rating, Rice (Flood) [18]: 0; Plant response rating, Barnyardgrass (Flood) [19]: 0; Plant response rating, Sedge, Umbrella (Flood) [20]: 0
2 | C#CCON=C(c1cccc(OCC)c1)c1c(O)c(C)nn(C)c1=O [Compound 199] | 0 | 0 | 0 | 20 | 0 | 0 | 0 | 0 | 0 | 0 | 0 | 0 | 20 | 30 | 0 | 20 | 0 | 0 | 0 | 20 | Pigweed plant response rating (0 to 100 scale) [11, 22]: 0; Pigweed plant response rating (0 to 100 scale) [11, 23]: 10; Barnyardgrass plant response rating (0 to 100 scale) [12, 22]: 0; Barnyardgrass plant response rating (0 to 100 scale) [12, 23]: 0; Ryegrass, Italian plant response rating (0 to 100 scale) [13, 22]: 0; Ryegrass, Italian plant response rating (0 to 100 scale) [13, 23]: 20; Ragweed plant response rating (0 to 100 scale) [14, 22]: 0; Ragweed plant response rating (0 to 100 scale) [14, 23]: 0; Kochia plant response rating (0 to 100 scale) [15, 22]: 0; Kochia plant response rating (0 to 100 scale) [15, 23]: 0; Foxtail, Giant plant response rating (0 to 100 scale) [16, 22]: 0; Foxtail, Giant plant response rating (0 to 100 scale) [16, 23]: 10; Plant response rating, Ducksalad (Flood) [17]: 0; Plant response rating, Rice (Flood) [18]: 0; Plant response rating, Barnyardgrass (Flood) [19]: 0; Plant response rating, Sedge, Umbrella (Flood) [20]: 0
3 | C#CCO/N=C(\c1cccc(/C=C/Cl)c1)c1c(O)c(C)nn(C)c1=O [Compound 254] | 20 | 70 | 30 | 50 | 20 | 70 | 30 | 50 | 50 | 70 | 0 | 10 | 0 | 40 | 20 | 60 | 30 | 60 | 10 | 70 | Pigweed plant response rating (0 to 100 scale) [11, 22]: 0; Pigweed plant response rating (0 to 100 scale) [11, 23]: 10; Barnyardgrass plant response rating (0 to 100 scale) [12, 22]: 0; Barnyardgrass plant response rating (0 to 100 scale) [12, 23]: 0; Ryegrass, Italian plant response rating (0 to 100 scale) [13, 22]: 20; Ryegrass, Italian plant response rating (0 to 100 scale) [13, 23]: 60; Ragweed plant response rating (0 to 100 scale) [14, 22]: 40; Ragweed plant response rating (0 to 100 scale) [14, 23]: 90; Kochia plant response rating (0 to 100 scale) [15, 22]: 0; Kochia plant response rating (0 to 100 scale) [15, 23]: 0; Foxtail, Giant plant response rating (0 to 100 scale) [16, 22]: 0; Foxtail, Giant plant response rating (0 to 100 scale) [16, 23]: 40; Plant response rating, Ducksalad (Flood) [17]: 0; Plant response rating, Rice (Flood) [18]: 0; Plant response rating, Barnyardgrass (Flood) [19]: 0; Plant response rating, Sedge, Umbrella (Flood) [20]: 0
4 | CCO/N=C(/c1c(O)cnn(C)c1=O)c1ccc(F)c2ccccc12 [Compound 270] | 80 | 50 | 0 | 0 | 0 | 10 | 20 | 70 | 20 | 30 | 0 | 0 | 50 | 80 | 0 | 10 | 0 | 0 | 0 | 30 | Pigweed plant response rating (0 to 100 scale) [11, 22]: 0; Pigweed plant response rating (0 to 100 scale) [11, 23]: 0; Barnyardgrass plant response rating (0 to 100 scale) [12, 22]: 0; Barnyardgrass plant response rating (0 to 100 scale) [12, 23]: 0; Ryegrass, Italian plant response rating (0 to 100 scale) [13, 22]: 0; Ryegrass, Italian plant response rating (0 to 100 scale) [13, 23]: 10; Ragweed plant response rating (0 to 100 scale) [14, 22]: 0; Ragweed plant response rating (0 to 100 scale) [14, 23]: 10; Kochia plant response rating (0 to 100 scale) [15, 22]: 0; Kochia plant response rating (0 to 100 scale) [15, 23]: 0; Foxtail, Giant plant response rating (0 to 100 scale) [16, 22]: 0; Foxtail, Giant plant response rating (0 to 100 scale) [16, 23]: 20; Plant response rating, Ducksalad (Flood) [17]: 0; Plant response rating, Rice (Flood) [18]: 0; Plant response rating, Barnyardgrass (Flood) [19]: 0; Plant response rating, Sedge, Umbrella (Flood) [20]: 0
